In article PMC10786919, “Design-rules for stapled peptides with in vivo activity and their application to Mdm2/X antagonists” (Nature Communications, 2024):
In brackets after ≈: the same amount, converted by molar mass. Read-outs that look alike come from different tables or passages of the source. Positions of bridges follow the written chain, without caps; N, C: chain ends. Non-standard residues stand in square brackets, D forms with d. Residues, ends and D or L forms follow the SMILES beside them. Lys(N3) = [N-]=[N+]=NCCCC[C@H](N)C(=O)O; R8 = C=CCCCCCC[C@@](C)(N)C(=O)O; Cba = N[C@@H](CC1CCC1)C(=O)O; S5 = C=CCCC[C@](C)(N)C(=O)O; βAla = NCCC(=O)O

Columns and labels:
[1] = Lactate dehydrogenase (LDH) release assay; type: cell-based
Summary of the method: (§1)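 HCT116 cells stably carrying a p53-responsive β-lactamase reporter were seeded at 8000 cells per well with a final DMSO level of 0.5%. Membrane integrity was assessed by lactate dehydrogenase release using a homogeneous fluorometric kit. Values are geometric means of at least three biological replicates.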

HCT116 cells = experiment: Lactate dehydrogenase (LDH) release assay; type: cell-based
Summary of the method: as §1

[2] = Solubility assay (kinetic solubility, PBS pH 7); type: physicochemical; conditions: pH 7, PBS; for solubility kinetic: pH 7, aqueous buffer, kinetic from dmso stock, read-out: Solubility
Summary of the method: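 Reference standards were made by diluting the 10 mM stock to 100 µM in acetonitrile:methanol:DMSO 10:80:10. Solubility in µM was calculated as the sample peak area divided by the standard peak area, multiplied by the standard concentration.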

[3] = Nanoclick permeability assay
Summary of the method: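 Azido-peptide permeability was read as loss of NanoBRET signal (donor 450 nm, acceptor 610 nm) after adding NanoBret618-azide at 10 μM final.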

EPSA = type: physicochemical
[4] = Experimental LogD (partition coefficient); conditions: for logD: not stated, Partition Coeff LogD
[5] = Nanoclick permeability assay EC50

Row | Structure (SMILES) | EC50 ([1]; 0% FBS 4Hr, read-out: LDH: Cytotoxicity assay: EC50) [µM] | EC50 ([1]; 10% FBS 16Hr, read-out: LDH: Cytotoxicity assay: EC50) [µM] | LDH: Cytotoxicity assay: % Effect (HCT116 cells; 0% FBS 4Hr) [%] | LDH: Cytotoxicity assay: % Effect (HCT116 cells; 10% FBS 16Hr) [%] | solubility kinetic [2] [µM] | cell entry EC50 [3] [µM] | EPSA (EPSA; EPSA) [A^2] | logD [4] | EC50 ([1]; LDH: Cytotoxicity assay: EC50) [µM] | LDH: Cytotoxicity assay: % Effect (HCT116 cells) [%] | cell entry EC50 [3, 5] [µM] | Partition Coeff LogD [4] | Solubility [2] | EPSA (EPSA)
1 | CC(=O)N[C@@H](CCCCN=[N+]=[N-])C(=O)NCCC(=O)N[C@@H](CC(C)C)C(=O)N[C@H](C(=O)N[C@@H](Cc1ccccc1)C(=O)N[C@]1(C)CCCCCCC=CCCC[C@@](C)(C(=O)N[C@@H](CCC(=O)O)C(=O)N[C@@H](CCC(=O)O)C(=O)N[C@@H](C)C(=O)N[C@@H](C)C(=O)N[C@@H](C)C(=O)N[C@@H](C)C(N)=O)NC(=O)[C@H](CC2CCC2)NC(=O)[C@H](CCC(N)=O)NC(=O)[C@H](CCC(=O)O)NC(=O)[C@H](Cc2c[nH]c3ccccc23)NC(=O)[C@H](Cc2ccc(O)cc2)NC(=O)[C@H](CCC(=O)O)NC1=O)[C@@H](C)O [MP-3685, AZIDE-ATSP-7041 (A8E, EEAAAA TAIL)] (Ac-[Lys(N3)][βAla]LTF[R8]EYWEQ[Cba][S5]EEAAAA-NH2; staple 6-13) | > 50.7 | > 50.7 | 10 | -3.573 | 150 (≈ 351 µg/mL) | 1.26 | 195 | 1.99 |  |  |  |  |  | 
2 | CC(=O)N[C@@H](CCCCN=[N+]=[N-])C(=O)N[C@@H](CCCCN)C(=O)N[C@@H](CC(C)C)C(=O)N[C@H](C(=O)N[C@@H](Cc1ccccc1)C(=O)N[C@]1(C)CCCCCCC=CCCC[C@@](C)(C(=O)N[C@@H](CO)C(=O)N[C@@H](C)C(=O)N[C@@H](C)C(N)=O)NC(=O)[C@H](CC2CCC2)NC(=O)[C@H](CCC(N)=O)NC(=O)[C@H](C)NC(=O)[C@H](Cc2c[nH]c3ccccc23)NC(=O)[C@H](Cc2ccc(O)cc2)NC(=O)[C@H](CCC(=O)O)NC1=O)[C@@H](C)O [MP-025] |  |  |  |  | 3 (≈ 6.08 µg/mL) |  | 205 | 2.83 | > 50 | 3.386 | 1.17 |  |  | 
3 | CC(=O)N[C@@H](CCCCN=[N+]=[N-])C(=O)N[C@@H](CCCCN)C(=O)N[C@@H](CCCCN)C(=O)N[C@@H](CC(C)C)C(=O)N[C@H](C(=O)N[C@@H](Cc1ccccc1)C(=O)N[C@]1(C)CCCCCCC=CCCC[C@@](C)(C(=O)N[C@@H](CO)C(=O)N[C@@H](C)C(=O)N[C@@H](C)C(N)=O)NC(=O)[C@H](CC2CCC2)NC(=O)[C@H](CCC(N)=O)NC(=O)[C@H](C)NC(=O)[C@H](Cc2c[nH]c3ccccc23)NC(=O)[C@H](Cc2ccc(O)cc2)NC(=O)[C@H](CCC(=O)O)NC1=O)[C@@H](C)O [MP-026] |  |  |  |  | 3 (≈ 6.47 µg/mL) |  | 213 |  | > 50 | 25.62 | 1.03 | Poorly Behaved |  | 
4 | CC(=O)N[C@@H](CCCCN=[N+]=[N-])C(=O)NCCC(=O)N[C@@H](CC(C)C)C(=O)N[C@@H](CC1CCC1)C(=O)N[C@@H](Cc1ccc(O)cc1)C(=O)N[C@]1(C)CCCCCCC=CCCC[C@@](C)(C(=O)N[C@@H](C)C(=O)N[C@@H](C)C(=O)N[C@@H](C)C(N)=O)NC(=O)[C@H](Cc2ccccc2)NC(=O)[C@H](Cc2c[nH]c3ccccc23)NC(=O)[C@H](CCC(=O)O)NC(=O)[C@H]([C@@H](C)O)NC(=O)[C@H](CCC(N)=O)NC(=O)[C@H](CO)NC1=O [MP-4204] (Ac-[Lys(N3)][βAla]L[Cba]Y[R8]SQTEWF[S5]AAA-NH2; staple 6-13) |  |  |  |  |  |  | 191 |  | > 50.7 | 16.98 | 0.669 | Poorly Behaved | Poorly Behaved | 
5 | CC(=O)N[C@@H](CCCCN=[N+]=[N-])C(=O)NCCC(=O)N[C@H](C(=O)N[C@@H](CO)C(=O)N[C@@H](Cc1ccccc1)C(=O)N[C@]1(C)CCCCCCC=CCCC[C@@](C)(C(=O)N[C@@H](CO)C(=O)N[C@@H](C)C(=O)N[C@@H](C)C(N)=O)NC(=O)[C@H](CC(C)C)NC(=O)[C@H](CC(C)C)NC(=O)[C@H](C)NC(=O)[C@H](Cc2c[nH]c3ccccc23)NC(=O)[C@H](Cc2ccc(O)cc2)NC(=O)[C@H](CCC(=O)O)NC1=O)[C@@H](C)O [MP-686] |  |  |  |  | 2 (≈ 3.83 µg/mL) |  | 193 | 2.7 | > 50.7 |  | 0.0386 |  |  | 
6 | CC(=O)N[C@@H](CCCNC(=N)N)C(=O)N[C@@H](CCCNC(=N)N)C(=O)NCCC(=O)N[C@@H](CCCCN=[N+]=[N-])C(=O)N[C@@H](CC(C)C)C(=O)N[C@H](C(=O)N[C@@H](Cc1ccccc1)C(=O)N[C@]1(C)CCCCCCC=CCCC[C@@](C)(C(=O)N[C@@H](CO)C(=O)N[C@@H](C)C(=O)N[C@@H](C)C(N)=O)NC(=O)[C@H](CC2CCC2)NC(=O)[C@H](CCC(N)=O)NC(=O)[C@H](C)NC(=O)[C@H](Cc2c[nH]c3ccccc23)NC(=O)[C@H](Cc2ccc(O)cc2)NC(=O)[C@H](CCC(=O)O)NC1=O)[C@@H](C)O [MP-006] |  |  |  |  | 2 (≈ 4.57 µg/mL) |  | 226 | 2.72 | 26.2 | 47.04 |  |  |  | 
7 | CC(=O)N[C@@H](CCCCN=[N+]=[N-])C(=O)NCCC(=O)N[C@@H](CC(C)C)C(=O)N[C@H](C(=O)N[C@@H](Cc1ccccc1)C(=O)N[C@]1(C)CCCCC#CC#CCCC[C@@](C)(C(=O)N[C@@H](CO)C(=O)N[C@@H](C)C(=O)N[C@@H](C)C(N)=O)NC(=O)[C@H](CC2CCC2)NC(=O)[C@H](CCC(N)=O)NC(=O)[C@H](C)NC(=O)[C@H](Cc2c[nH]c3ccccc23)NC(=O)[C@H](Cc2ccc(O)cc2)NC(=O)[C@H](CCC(=O)O)NC1=O)[C@@H](C)O [MP-806] |  |  |  |  | 34 (≈ 66.8 µg/mL) |  | 203 | 2.44 | > 50.7 |  | 5.58 |  |  | 
8 | CC(C)C[C@H](NC(=O)[C@@H](N)CCCCN=[N+]=[N-])C(=O)N[C@H](C(=O)N[C@@H](Cc1ccccc1)C(=O)N[C@]1(C)CCCCCCC=CCCC[C@@](C)(C(=O)N[C@@H](CCC(=O)O)C(N)=O)NC(=O)[C@H](CC2CCC2)NC(=O)[C@H](CCC(N)=O)NC(=O)[C@H](C)NC(=O)[C@H](Cc2c[nH]c3ccccc23)NC(=O)[C@H](Cc2ccc(O)cc2)NC(=O)[C@H](CCC(=O)O)NC1=O)[C@@H](C)O [MP-4009] (H-[Lys(N3)]LTF[R8]EYWAQ[Cba][S5]E-NH2; staple 5-12) |  |  |  |  |  |  |  |  | > 50 | -2.907 |  | Poorly Behaved | Poorly Behaved | Poorly Behaved
9 | CC(=O)N[C@@H](CCCNC(=N)N)C(=O)N[C@@H](CCCNC(=N)N)C(=O)NCCC(=O)N[C@@H](CC(C)C)C(=O)N[C@H](C(=O)N[C@@H](Cc1ccccc1)C(=O)N[C@]1(C)CCCCCCC=CCCC[C@@](C)(C(=O)N[C@@H](CO)C(=O)N[C@@H](C)C(=O)N[C@@H](C)C(N)=O)NC(=O)[C@H](CC2CCC2)NC(=O)[C@H](CCC(N)=O)NC(=O)[C@H](C)NC(=O)[C@H](Cc2c[nH]c3ccccc23)NC(=O)[C@H](Cc2ccc(O)cc2)NC(=O)[C@H](CCC(=O)O)NC1=O)[C@@H](C)O [MP-4002] |  |  |  |  | 11 (≈ 23.4 µg/mL) |  | 212 | 2.47 | 37.7 | 50.55 |  |  |  | 
10 | CC(=O)N[C@@H](CCCCN=[N+]=[N-])C(=O)NCCC(=O)N[C@@H](CC(C)C)C(=O)N[C@H](C(=O)N[C@@H](Cc1ccccc1)C(=O)N[C@@]1(C)CCCCCCC=CCCC[C@@](C)(C(=O)N[C@@H](CO)C(=O)N[C@@H](C)C(=O)N[C@@H](C)C(N)=O)NC(=O)[C@H](CC2CCC2)NC(=O)[C@H](CCC(N)=O)N(C)C(=O)[C@H](C)NC(=O)[C@H](Cc2c[nH]c3ccccc23)NC(=O)[C@H](Cc2ccc(O)cc2)NC(=O)[C@H](CCC(=O)O)NC1=O)[C@@H](C)O [MP-297] |  |  |  |  | 108 (≈ 213 µg/mL) |  | 183 | 2.5 | > 50.7 |  | 1.53 |  |  | 
11 | CC(=O)N[C@@H](CCCCN=[N+]=[N-])C(=O)NCCC(=O)N[C@@H](CC(C)C)C(=O)N[C@H](C(=O)N[C@@H](CCC(=O)O)C(=O)N[C@]1(C)CCCCCCC=CCCC[C@@](C)(C(=O)N[C@@H](CO)C(=O)N[C@@H](C)C(=O)N[C@@H](C)C(N)=O)NC(=O)[C@H](CC2CCC2)NC(=O)[C@H](CCC(N)=O)NC(=O)[C@H](C)NC(=O)[C@H](Cc2c[nH]c3ccccc23)NC(=O)[C@H](Cc2ccc(O)cc2)NC(=O)[C@H](Cc2ccccc2)NC1=O)[C@@H](C)O [MP-123] (Ac-[Lys(N3)][βAla]LTE[R8]FYWAQ[Cba][S5]SAA-NH2; staple 6-13) |  |  |  |  | 2 (≈ 3.94 µg/mL) |  | 197 | 2.66 | > 50.7 |  | 0.682 |  |  | 
12 | CC(=O)N[C@@H](CS)C(=O)N[C@@H](CCCCN=[N+]=[N-])C(=O)NCCC(=O)N[C@@H](C)C(=O)N[C@H](C(=O)N[C@@H](Cc1ccccc1)C(=O)N[C@]1(C)CCCCCCC=CCCC[C@@](C)(C(=O)N[C@@H](C)C(=O)N[C@@H](C)C(=O)N[C@@H](C)C(N)=O)NC(=O)[C@H](CC2CCC2)NC(=O)[C@H](C)NC(=O)[C@H](C)NC(=O)[C@H](Cc2c[nH]c3ccccc23)NC(=O)[C@H](Cc2ccc(O)cc2)NC(=O)[C@H](C)NC1=O)[C@@H](C)O [MP-987] (Ac-C[Lys(N3)][βAla]ATF[R8]AYWAA[Cba][S5]AAA-NH2; staple 7-14) |  |  |  |  | 12 (≈ 22.8 µg/mL) |  | 180 | 1.12 | > 50 |  | 0.217 |  |  | 
